Source: patent US10519099B2, “Cystobactamides” (priority 2014, dated 2019)
Converted amounts (≈) assume the structure as drawn. Read-outs that look alike come from different tables or passages of the source.

Experiments:
[1] = tested on: Acinetobacter baumannii DSM-30008; assay: MIC microdilution, A. baumannii DSM-30008; format: cell-based; details: Acinetobacter baumannii, DSM30008
Protocol: (§1) Indicator strains used in susceptibility assays were either part of our strain collection or purchased from the German Collection of Microorgansims and Cell Cultures (DSMZ) or from the American Type Culture Collection (ATCC). E. coli strain WT and corresponding E. coli mutants were kindly provided by Prof. Dr. P. Heisig, Pharmaceutical Biology and Microbiology, University of Hamburg. E. coli strains JW0401-1 (WT) and Δtsx were obtained from the CGSC collection.
(§2) MIC values were determined in standardized microdilution assays. Overnight cultures were diluted in the appropriate growth medium to achieve an inoculum of 10^4-10^6 cfu/mL. Yeasts were grown in Myc medium (1% phytone peptone, 1% glucose, 50 mM HEPES, pH 7.0), S. pneumonia and Enterococcus spp. in tryptic soy broth (TSB: 1.7% peptone casein, 0.3% peptone soymeal, 0.25% glucose, 0.5% NaCl, 0.25% K2HPO4; pH 7.3); M. smegmatis in Middlebrook 7H9 medium supplemented with 10% Middlebrook ADC enrichment and 2 ml/I glycerol). All other listed bacteria were grown in Müller-Hinton broth (0.2% beef infusion solids, 1.75% casein hydrolysate, 0.15% starch, pH 7.4). Cystobactamides and reference drugs were added directly to the cultures in sterile 96-well plates as duplicates and serial dilutions were prepared. Microorganisms were grown on a microplate shaker (750 rpm, 30-37° C., 18-48 h), except S. pneumonia, which was grown at non-shaking conditions (37° C., 5% CO2, 18 h). Growth inhibition was assessed by visual inspection and the MIC was defined as the lowest concentration of compound that inhibited visible growth.

[2] = tested on: Citrobacter freundii DSM-30039; assay: MIC microdilution, C. freundii DSM-30039; format: cell-based; details: Citrobacter freundii, DSM30039
Protocol: as §1, §2

[3] = tested on: E. coli DSM-1116; assay: MIC microdilution, E. coli DSM-1116; format: cell-based, Escherichia coli; details: Escherichia coli, DSM1116
Protocol: as §1, §2

[4] = tested on: E. coli DSM-26863 (tolC3); assay: MIC microdilution, E. coli DSM-26863 (tolC3); format: cell-based, Escherichia coli; details: Escherichia coli
Protocol: as §1, §2

[5] = tested on: E. coli WT; assay: MIC microdilution, E. coli WT; format: cell-based, Escherichia coli; details: Escherichia coli
Protocol: as §1, §2

[6] = tested on: E. coli WT-3 [gyrA(S83L, D87G)]; assay: MIC microdilution, E. coli WT-3 [gyrA(S83L, D87G)]; format: cell-based, Escherichia coli; details: Escherichia coli
Protocol: as §1, §2

[7] = tested on: E. coli WT-III [marRΔ74bp]; assay: MIC microdilution, E. coli WT-III [marRΔ74bp]; format: cell-based, Escherichia coli
Protocol: as §1, §2

[8] = tested on: Proteus vulgaris DSM-2140; assay: MIC microdilution, P. vulgaris DSM-2140; format: cell-based; details: Proteus vulgaris, DSM2140
Protocol: as §1, §2

[9] = tested on: Chromobacterium violaceum DSM-30191; assay: MIC microdilution, Chromobacterium violaceum DSM-30191; format: cell-based; details: DSM30191, read-out: MIC Chromobacterium violaceum DSM-30191
Protocol: as §1
as §2, with “Cystobactamides and reference drugs were added directly to the cultures in sterile 96-well plates as duplicates and serial dilutions were prepared. Microorganisms were grown on a microplate shaker (750 rpm, 30-37° C., 18-48 h), except S. pneumonia, which was grown at non-shaking conditions (37° C., 5% CO2, 18 h).” left out

[10] = tested on: Escherichia coli MI [gyrA(S83L)]; assay: MIC microdilution, E. coli MI [gyrA(S83L)]; format: cell-based; details: read-out: MIC Escherichia coli MI [gyrA(S83L)]
Protocol: as §1
as §2, with “Cystobactamides and reference drugs were added directly to the cultures in sterile 96-well plates as duplicates and serial dilutions were prepared. Microorganisms were grown on a microplate shaker (750 rpm, 30-37° C., 18-48 h), except S. pneumonia, which was grown at non-shaking conditions (37° C., 5% CO2, 18 h).” left out

[11] = tested on: Escherichia coli WT-3.2 [gyrA(D87G)]; assay: MIC microdilution, E. coli WT-3.2 [gyrA(D87G)]; format: cell-based; details: read-out: MIC Escherichia coli WT-3.2 [gyrA(D87G)]
Protocol: as §1
as §2, with “Cystobactamides and reference drugs were added directly to the cultures in sterile 96-well plates as duplicates and serial dilutions were prepared. Microorganisms were grown on a microplate shaker (750 rpm, 30-37° C., 18-48 h), except S. pneumonia, which was grown at non-shaking conditions (37° C., 5% CO2, 18 h).” left out

[12] = tested on: Escherichia coli MI-4 [gyrA(S83L), parC(S80I)]; assay: MIC microdilution, E. coli MI-4 [gyrA(S83L), parC(S80I)]; format: cell-based; details: read-out: MIC Escherichia coli MI-4 [gyrA(S83L), parC(S80I)]
Protocol: as §1
as §2, with “Cystobactamides and reference drugs were added directly to the cultures in sterile 96-well plates as duplicates and serial dilutions were prepared. Microorganisms were grown on a microplate shaker (750 rpm, 30-37° C., 18-48 h), except S. pneumonia, which was grown at non-shaking conditions (37° C., 5% CO2, 18 h).” left out

[13] = tested on: Escherichia coli DSM-12242 (NAL^R); assay: MIC microdilution, E. coli DSM-12242 (NAL^R); format: cell-based; details: DSM12242, read-out: MIC Escherichia coli DSM-12242 (NAL^R)
Protocol: as §1
as §2, with “Cystobactamides and reference drugs were added directly to the cultures in sterile 96-well plates as duplicates and serial dilutions were prepared. Microorganisms were grown on a microplate shaker (750 rpm, 30-37° C., 18-48 h), except S. pneumonia, which was grown at non-shaking conditions (37° C., 5% CO2, 18 h).” left out

[14] = tested on: Escherichia coli ATCC35218; assay: MIC microdilution, E. coli ATCC35218; format: cell-based; details: ATCC35218, read-out: MIC Escherichia coli ATCC35218
Protocol: as §1
as §2, with “Cystobactamides and reference drugs were added directly to the cultures in sterile 96-well plates as duplicates and serial dilutions were prepared. Microorganisms were grown on a microplate shaker (750 rpm, 30-37° C., 18-48 h), except S. pneumonia, which was grown at non-shaking conditions (37° C., 5% CO2, 18 h).” left out

[15] = tested on: Escherichia coli ATCC25922; assay: MIC microdilution, E. coli ATCC25922; format: cell-based; details: ATCC25922, read-out: MIC Escherichia coli ATCC25922
Protocol: as §1
as §2, with “Cystobactamides and reference drugs were added directly to the cultures in sterile 96-well plates as duplicates and serial dilutions were prepared. Microorganisms were grown on a microplate shaker (750 rpm, 30-37° C., 18-48 h), except S. pneumonia, which was grown at non-shaking conditions (37° C., 5% CO2, 18 h).” left out

[16] = tested on: Klebsiella pneumoniae DSM-30104; assay: MIC microdilution, Klebsiella pneumoniae DSM-30104; format: cell-based; details: DSM30104, read-out: MIC Klebsiella pneumoniae DSM-30104
Protocol: as §1
as §2, with “Cystobactamides and reference drugs were added directly to the cultures in sterile 96-well plates as duplicates and serial dilutions were prepared. Microorganisms were grown on a microplate shaker (750 rpm, 30-37° C., 18-48 h), except S. pneumonia, which was grown at non-shaking conditions (37° C., 5% CO2, 18 h).” left out

[17] = tested on: Pseudomonas aeruginosa DSM-24599; assay: MIC microdilution, P. aeruginosa DSM-24599; format: cell-based; details: Pseudomonas aeruginosa, DSM24599, read-out: MIC Pseudomonas aeruginosa DSM-24599
Protocol: as §1, §2

[18] = tested on: Pseudomonas aeruginosa DSM-46316 (ESBL); assay: MIC microdilution, P. aeruginosa DSM-46316 (ESBL); format: cell-based; details: Pseudomonas aeruginosa, DSM46316, read-out: MIC Pseudomonas aeruginosa DSM-46316 (ESBL)
Protocol: as §1, §2

[19] = tested on: Serratia marcescens DSM-30121; assay: MIC microdilution, Serratia marcescens DSM-30121; format: cell-based; details: Serratia marcescens, DSM30121, read-out: MIC Serratia marcescens DSM-30121
Protocol: as §1, §2

[20] = tested on: Mycobacterium smegmatis ATCC700084; assay: MIC microdilution, Mycobacterium smegmatis ATCC700084; format: cell-based; details: Mycolicibacterium smegmatis, ATCC700084, read-out: MIC Mycobacterium smegmatis ATCC700084
Protocol: as §1
as §2, with “Cystobactamides and reference drugs were added directly to the cultures in sterile 96-well plates as duplicates and serial dilutions were prepared. Microorganisms were grown on a microplate shaker (750 rpm, 30-37° C., 18-48 h), except S. pneumonia, which was grown at non-shaking conditions (37° C., 5% CO2, 18 h).” left out

[21] = tested on: Staphylococcus epidermidis DSM-28765; assay: MIC microdilution, Staphylococcus epidermidis DSM-28765; format: cell-based; details: Staphylococcus epidermidis, DSM28765, read-out: MIC Staphylococcus epidermidis DSM-28765
Protocol: as §1, §2

[22] = tested on: Candida albicans DSM-1665; assay: MIC microdilution, Candida albicans DSM-1665; format: cell-based; details: DSM1665, read-out: MIC Candida albicans DSM-1665
Protocol: as §1
as §2, with “Cystobactamides and reference drugs were added directly to the cultures in sterile 96-well plates as duplicates and serial dilutions were prepared. Microorganisms were grown on a microplate shaker (750 rpm, 30-37° C., 18-48 h), except S. pneumonia, which was grown at non-shaking conditions (37° C., 5% CO2, 18 h).” left out

[23] = tested on: Pichia anomala DSM-6766; assay: MIC microdilution, Pichia anomala DSM-6766; format: cell-based; details: Hansenula anomala, DSM6766, read-out: MIC Pichia anomala DSM-6766
Protocol: as §1
as §2, with “Cystobactamides and reference drugs were added directly to the cultures in sterile 96-well plates as duplicates and serial dilutions were prepared. Microorganisms were grown on a microplate shaker (750 rpm, 30-37° C., 18-48 h), except S. pneumonia, which was grown at non-shaking conditions (37° C., 5% CO2, 18 h).” left out

SMILES: COC(C(N)=O)C(NC(=O)c1ccc(NC(=O)c2ccc([N+](=O)[O-])cc2)cc1)C(=O)Nc1ccc(C(=O)Nc2ccc(C(=O)Nc3ccc(C(=O)O)cc3OC(C)C)c(O)c2OC(C)C)cc1 (stereo not shown) [Cys 919-2]
- MIC ([1]; Gram-negative set, read-out: MIC A. baumannii DSM-30008): 8 µg/mL (≈ 8.7 µM)
- MIC ([1]; larger panel, read-out: MIC Acinetobacter baumannii DSM-30008): 8 µg/mL (≈ 8.7 µM)
- MIC ([2]; Gram-negative set, read-out: MIC C. freundii DSM-30039): 1 µg/mL (≈ 1.09 µM)
- MIC ([2]; larger panel, read-out: MIC Citrobacter freundii DSM-30039): 1 µg/mL (≈ 1.09 µM)
- MIC ([3]; Gram-negative set, read-out: MIC E. coli DSM-1116): 0.5 µg/mL (≈ 0.544 µM)
- MIC ([3]; larger panel, read-out: MIC Escherichia coli DSM-1116): 1 µg/mL (≈ 1.09 µM)
- MIC ([4]; DSM26863, read-out: MIC E. coli DSM-26863 (tolC3)): 0.25 µg/mL (≈ 0.272 µM)
- MIC ([4]; DSM26863, read-out: MIC Escherichia coli DSM-26863 (tolC3)): 0.5 to 1 µg/mL (≈ 0.544 to 1.09 µM)
- MIC ([5]; Gram-negative set, read-out: MIC E. coli WT): 0.5 µg/mL (≈ 0.544 µM)
- MIC ([5]; larger panel, read-out: MIC Escherichia coli WT): 0.5 µg/mL (≈ 0.544 µM)
- MIC ([6]; read-out: MIC E. coli WT-3 [gyrA(S83L, D87G)]): 64 µg/mL (≈ 69.6 µM)
- MIC ([6]; read-out: MIC Escherichia coli WT-3 [gyrA(S83L, D87G)]): 16 to 32 µg/mL (≈ 17.4 to 34.8 µM)
- MIC E. coli WT-III [marRΔ74bp] ([7]; Gram-negative set): >64 µg/mL
- MIC Escherichia coli WTIII (marRΔ74bp) ([7]; larger panel): 64 µg/mL (≈ 69.6 µM)
- MIC ([8]; Gram-negative set, read-out: MIC P. vulgaris DSM-2140): 4 µg/mL (≈ 4.35 µM)
- MIC ([8]; larger panel, read-out: MIC Proteus vulgaris DSM-2140): 4 µg/mL (≈ 4.35 µM)
- MIC [9]: 15 µg/mL (≈ 16.3 µM)
- MIC [10]: 4 µg/mL (≈ 4.35 µM)
- MIC [11]: 4 µg/mL (≈ 4.35 µM)
- MIC [12]: 2 to 4 µg/mL (≈ 2.17 to 4.35 µM)
- MIC [13]: 1 to 2 µg/mL (≈ 1.09 to 2.17 µM)
- MIC [14]: 1 µg/mL (≈ 1.09 µM)
- MIC [15]: 0.5 µg/mL (≈ 0.544 µM)
- MIC [16]: > 64 µg/mL
- MIC [17]: > 64 µg/mL
- MIC [18]: > 64 µg/mL
- MIC [19]: > 64 µg/mL
- MIC [20]: > 64 µg/mL
- MIC [21]: 0.25 µg/mL (≈ 0.272 µM)
- MIC [22]: > 64 µg/mL
- MIC [23]: > 64 µg/mL
